Source: patent publication US5591762A, “Benzimidazoles useful as angiotensin-11 antagonists” (Dr. Karl Thomae GmbH, priority 1991, dated 1997)

What follows are compounds tested on rat model of renovascular hypertension (2-kidney 1-clip rat) (assay: Renovascular hypertension: blood pressure lowering in 2-kidney 1-clip rats (telemetry, oral)). Settings: 0.3 mg/kg, two times daily.
Assay type: in vivo
Description: DESCRIPTION OF METHOD: RENOVASCULAR HYPERTENSION
Blood pressure lowering effects of angiotensin-II antagonists were investigated in a rat model of renovascular hypertension. This model, the 2-kidney 1-clip rat, is characterized by an elevated renin activity (see J. Exper. Med. 59, 347-378 (1934), J. Applied Physiol. 31(1), 142-144 (1971) and Gross D. R. in "Animal Models in Cardiovascular Research: Animal Models of hypertension" Martinus Nijhoff Publishers (1985)). The compounds are given two times daily by oral administration to conscious freely moving rats which have been implanted with a chronic-use pressure transmitter to monitor blood pressure and heart rate continuously (PhysioTel® telemetry device).
Male rats (140-150 g) are anaesthetized with pentobarbitonesodium (50 mg/kg i.p.). The abdominal cavity is opened by a midline incision. A solid silver clip with an internal diameter of 0.20 mm is applied to the left renal artery as close as possible to the aorta. The contralateral kidney is not disturbed. The catheter of a pressure transmitter (TA11PA-C40) is inserted in the abdominal aorta and the transmitter fixed to abdominal musculature. The abdomen is closed with sutures. The animals are allowed to recover for several weeks and housed individually in cages.
After the implantation of the chronic-use device, blood pressure and heart rate are transmitted by telemetry and the signals are received by a RA 1010 General Purpose Receiver (Data Science Int.). Data are acquired with the Dataquest® IV 1.11 System on a Hewlett Packard Vectra ES/12 386 computer.
Compounds are dissolved in 1M HCl or 1M NaOH. To stabilize the solution β-cyclodextrin (1.8 g/v%) is added. The solutions (0.3 and 1 mg/kg/2 ml) are orally given by gavage at 10.00 a.m. and 4.00 p.m..

| Structure (SMILES) | Blood pressure lowering activity [mmHg] |
| --- | --- |
| CCCc1nc2c(C)cc(-c3nc4ccccc4n3C)cc2n1Cc1ccc(-c2ccccc2C(=O)O)cc1 [D] | -37 |
| CCCc1nc2c(C)cc(-c3nc4ccccc4n3C)cc2n1Cc1ccc(-c2ccccc2-c2nn[nH]n2)cc1 [E] | -55 |
| CCCCc1nc2c(C)cc(-c3nc4ccccc4n3C)cc2n1Cc1ccc(-c2ccccc2-c2nnn[nH]2)cc1 [T] | -24 |

Same assay, conditions: 1.0 mg/kg, two times daily

| Structure (SMILES) | Blood pressure lowering activity [mmHg] |
| --- | --- |
| CCCc1nc2c(C)cc(-c3nc4ccccc4n3C)cc2n1Cc1ccc(-c2ccccc2C(=O)O)cc1 [D] | -68 |
| CCCc1nc2c(C)cc(-c3nc4ccccc4n3C)cc2n1Cc1ccc(-c2ccccc2-c2nn[nH]n2)cc1 [E] | -78 |
| CCCc1nc2c(C)cc(-c3cn4ccccc4n3)cc2n1Cc1ccc(-c2ccccc2-c2nnn[nH]2)cc1 [U] | -43 |

Each compound was assayed against T1, angiotensin II-receptor (Rattus norvegicus, UniProt P25095) (assay: Angiotensin II-receptor bonding (binding) with [125I]-angiotensin II on rat lung homogenate). Settings: 50 pM [125I]-angiotensin II, 60 min at 37° C., pH 7.40.
T1 construct: The tissue (rats lung ) is homogenised in Tris-buffer; from tissue; host or cells: rat lung homogenate (washed 20,000×g pellet)
T1 sequence (P25095 1-359): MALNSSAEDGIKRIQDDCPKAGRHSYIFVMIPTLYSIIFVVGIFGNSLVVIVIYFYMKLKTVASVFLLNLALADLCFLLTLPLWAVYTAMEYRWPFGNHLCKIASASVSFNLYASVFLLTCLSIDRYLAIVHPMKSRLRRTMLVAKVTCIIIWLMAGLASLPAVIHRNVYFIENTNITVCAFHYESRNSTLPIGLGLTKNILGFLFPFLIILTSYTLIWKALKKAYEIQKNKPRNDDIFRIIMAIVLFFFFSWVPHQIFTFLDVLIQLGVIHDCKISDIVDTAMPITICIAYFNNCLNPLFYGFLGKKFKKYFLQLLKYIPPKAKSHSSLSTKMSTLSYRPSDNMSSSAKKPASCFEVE
Method: DESCRIPTION OF METHOD: ANGIOTENSIN II-RECEPTOR BONDING
The tissue (rats lung ) is homogenised in Tris-buffer (50 mMol Tris, 150 mMol NaCl, 5 mMol EDTA, pH 7.40) and centrifuged twice for 20 minutes at 20,000×g. The finished pellets are resuspended in incubating buffer (50 mMol Tris, 5 mMol MgCl2, 0.2% BSA, pH 7.40) 1:75, based on the moist weight of the tissue. Each 0.1 ml of homogenate is incubated for 60 minutes at 37° C. with 50 pM [^125 I]-antiotensin II (NEN, Dreieich, FRG) with increasing concentrations of the test substance in a total volume of 0.25 ml. Incubation is ended by rapid filtration through glass fibre filter mats. The filters are each washed with 4 ml of ice cold buffer (25 mMol Tris, 2.5 mMol MgCl2, 0.1% BSA, pH 7.40). The bound radioactivity is measured using a gamma-counter. The corresponding IC50 value is obtained from the dose-activity curve.

| Structure (SMILES) | IC50 [nM] |
| --- | --- |
| CCCc1nc2c(C)cc(-c3cn(CC(N)=O)cn3)cc2n1Cc1ccc(-c2ccccc2C(=O)O)cc1 [AA] | 3.4 |
| CCCc1nc2c(C)cc(-c3cn(CCCN(C)C)cn3)cc2n1Cc1ccc(-c2ccccc2C(=O)O)cc1 [BB] | 1.3 |
| CCCc1nc2c(C)cc(-c3cn(C)cn3)cc2n1Cc1ccc(-c2ccccc2C(=O)O)cc1 [V] | 1.2 |
| CCCc1nc2c(C)cc(-c3cn(C(C)C)cn3)cc2n1Cc1ccc(-c2ccccc2-c2nn[nH]n2)cc1 [W] | 1.5 |
| CCCc1nc2c(C)cc(-c3coc(C)n3)cc2n1Cc1ccc(-c2ccccc2C(=O)O)cc1 [X] | 40 |
| CCOc1nc2ccc(-c3cn(C(C)C)cn3)cc2n1Cc1ccc(-c2ccccc2C(=O)O)cc1 [Y] | 10 |
| CCCc1nc2c(C)cc(-c3cn(C4CCCCCC4)cn3)cc2n1Cc1ccc(-c2ccccc2C(=O)O)cc1 [Z] | 15 |

Each compound was assayed on conscious renally hypertensive rats (assay: Hypotensive effect in conscious renally hypertensive rats after oral administration). Settings: 10 mg/kg.
Assay type: in vivo, rat
Method: In addition, compounds D, E, F, G, H, M and O were tested on conscious renally hypertensive rats for their effect after oral administration using methods known from the literature.

| Structure (SMILES) | hypotensive effect |
| --- | --- |
| CCCc1nc2c(C)cc(-c3nc4ccccc4n3C)cc2n1Cc1ccc(-c2ccccc2C(=O)O)cc1 [D] | exhibited a hypotensive effect |
| CCCc1nc2c(C)cc(-c3nc4ccccc4n3C)cc2n1Cc1ccc(-c2ccccc2-c2nn[nH]n2)cc1 [E] | exhibited a hypotensive effect |
| CCCc1nc2c(C)cc(N3Cc4ccccc4C3=O)cc2n1Cc1ccc(-c2ccccc2-c2nn[nH]n2)cc1 [F] | exhibited a hypotensive effect |
| CCCc1nc2c(C)cc(N3CCCCS3(=O)=O)cc2n1Cc1ccc(-c2ccccc2-c2nn[nH]n2)cc1 [G] | exhibited a hypotensive effect |
| CCCCc1nc2c(C)cc(N3C(=O)C(C)=C(C)C3=O)cc2n1Cc1ccc(-c2ccccc2C(=O)O)cc1 [H] | exhibited a hypotensive effect |
| Cc1cc(-c2nc3ccccc3n2C)cc2c1nc(C1CC1)n2Cc1ccc(-c2ccccc2C(=O)O)cc1 [M] | exhibited a hypotensive effect |
| CCCc1nc2c(C)cc(-c3cn4cccnc4n3)cc2n1Cc1ccc(-c2ccccc2-c2nn[nH]n2)cc1 [O] | exhibited a hypotensive effect |
